Measurements as given in US4604401A, “Antibacterial agents III” (Warner-Lambert Company, priority 1984, dated 1986).
In brackets after ≈: the same amount, converted by molar mass. Like-named read-outs stand apart in the source and are kept apart here.

What was measured:
Test in all cases: In vitro antibacterial activity, microtitration dilution method (MIC)
Assay type in all cases: cell-based
[1] = test system: Enterobacter cloacae MA 2646; conditions: MA2646, read-out: Minimal Inhibitory Concentration (MIC)
Description: (§1) The compounds of the invention display antibacterial activity when tested by the microtitration dilution method as described in Heifetz, et al, Antimicr. Agents & Chemoth., 6, 124 (1974), which is incorporated herein by reference.
(§2) By use of the above referenced method, the followed minimum inhibitory concentration values (MICs in μg/ml) were obtained for representative compounds of the invention.

Escherichia coli Vogel = conditions: read-out: Minimal Inhibitory Concentration (MIC)
Description: as §1, §2

[2] = test system: Klebsiella pneumoniae MGH-2; conditions: MGH2, read-out: Minimal Inhibitory Concentration (MIC)
Description: as §1, §2

Proteus rettgeri M 1771 = conditions: Providencia rettgeri, M1771, read-out: Minimal Inhibitory Concentration (MIC)
Description: as §1, §2

[3] = test system: Pseudomonas aeruginosa UI-18; conditions: UI18, read-out: Minimal Inhibitory Concentration (MIC)
Description: as §1, §2

[4] = test system: Streptococcus pneumoniae SV-1; conditions: SV1, read-out: Minimal Inhibitory Concentration (MIC)
Description: as §1, §2

[5] = test system: Streptococcus pyogenes C-203; conditions: C203, read-out: Minimal Inhibitory Concentration (MIC)
Description: as §1, §2

[6] = test system: Staphylococcus aureus H 228
Description: (§3) Agents & Chemoth., 6, 124 (1974), which is incorporated herein by reference.

[7] = test system: Staphylococcus aureus UC-76
Description: as §3

[8] = test system: Streptococcus faecalis MGH-2; conditions: Enterococcus faecalis
Description: as §3

[9] = H228, Staphylococcus aureus H 228, read-out: Minimal Inhibitory Concentration (MIC)
[10] = Staphylococcus aureus, UC76, read-out: Minimal Inhibitory Concentration (MIC)
[11] = MGH2, Streptococcus faecalis MGH-2, read-out: Minimal Inhibitory Concentration (MIC)

SMILES	MIC [1] [µg/mL]	MIC (Escherichia coli Vogel) [µg/mL]	MIC [2] [µg/mL]	MIC (Proteus rettgeri M 1771) [µg/mL]	MIC [3] [µg/mL]	MIC [4] [µg/mL]	MIC [5] [µg/mL]	MIC [6, 9] [µg/mL]	MIC [7, 10] [µg/mL]	MIC [8, 11] [µg/mL]	MIC ([6]; Staphylococcus aureus, H228, read-out: Minimal Inhibitory Concentration (MIC)) [µg/mL]	MIC ([7]; UC76, Staphylococcus aureus UC-76, read-out: Minimal Inhibitory Concentration (MIC)) [µg/mL]	MIC ([8]; MGH2, read-out: Minimal Inhibitory Concentration (MIC)) [µg/mL]
CCNCC1CCN(c2cc3c(cc2F)c(=O)c(C(=O)O)cn3NC)C1 (stereo not shown) [Ex. 1, 7-[3-[(Ethylamino)methyl]-1-pyrrolidinyl]-6-fluoro-1-methylamino-1,4-dihydro-4-oxo-3-quinolinecarboxylic Acid]	6.3 (≈ 17.4 µM)	12.5 (≈ 34.5 µM)	6.3 (≈ 17.4 µM)	25 (≈ 69 µM)	25 (≈ 69 µM)	3.1 (≈ 8.55 µM)	0.4 (≈ 1.1 µM)	12.5 (≈ 34.5 µM)	0.2 (≈ 0.552 µM)	6.3 (≈ 17.4 µM)	–	–	–
CNn1cc(C(=O)O)c(=O)c2cc(F)c(N3CCC(N)C3)c(F)c21 (stereo not shown) [Ex. 2, 7-(3-Amino-1-pyrrolidinyl)-6,8-difluoro-1,4-dihydro-1-methylamino-4-oxo-3-quinolinecarboxylic Acid]	0.8 (≈ 2.36 µM)	0.2 (≈ 0.591 µM)	0.2 (≈ 0.591 µM)	0.4 (≈ 1.18 µM)	0.2 (≈ 0.591 µM)	6.3 (≈ 18.6 µM)	0.8 (≈ 2.36 µM)	–	–	12.5 (≈ 36.9 µM)	3.1 (≈ 9.16 µM)	0.4 (≈ 1.18 µM)	–
CCNCC1CCN(c2c(F)cc3c(=O)c(C(=O)O)cn(NC)c3c2F)C1 (stereo not shown) [Ex. 3, 7-[3-[(Ethylamino)methyl]-1-pyrrolidinyl]-6,8-difluoro-1,4-dihydro-1-methylamino-4-oxo-3-quinolinecarboxylic acid]	0.2 (≈ 0.526 µM)	0.2 (≈ 0.526 µM)	0.2 (≈ 0.526 µM)	1.6 (≈ 4.21 µM)	0.8 (≈ 2.1 µM)	0.1 (≈ 0.263 µM)	0.2 (≈ 0.526 µM)	0.4 (≈ 1.05 µM)	0.2 (≈ 0.526 µM)	0.4 (≈ 1.05 µM)	–	–	–
CNn1cc(C(=O)O)c(=O)c2cc(F)c(N3CCC(CN)C3)c(F)c21 (stereo not shown) [Ex. 4, 7-[3-(Aminomethyl)-1-pyrrolidinyl]-6,8-difluoro-1,4-dihydro-1-methylamino-4-oxo-3-quinolinecarboxylic acid]	1.6 (≈ 4.54 µM)	1.6 (≈ 4.54 µM)	1.6 (≈ 4.54 µM)	1.6 (≈ 4.54 µM)	1.6 (≈ 4.54 µM)	0.8 (≈ 2.27 µM)	0.2 (≈ 0.568 µM)	1.6 (≈ 4.54 µM)	0.2 (≈ 0.568 µM)	–	–	–	0.8 (≈ 2.27 µM)
